Experimental data reported in patent US9480758B2, “Diagnostic agents selective against metalloproteases” (BRACCO IMAGING S.P.A., priority 2008, dated 2016).
Where two headings read alike, the source gives them in different places.

Legend:
MMP-12 = target: T1, MMP-12 (Homo sapiens, UniProt P39900); assay: MMP inhibition assay, fluorogenic substrate FS-6; format: biochemical; conditions: MMP12 1 nM, inhibitor incubated 4 h at 25° C., substrate Mca-Lys-Pro-Leu-Gly-Leu-Dap(Dnp)-Ala-Arg-NH2 2 μM
T1 construct: purchased RDSystems
Description: (§1) As reported therein, the inhibitory activity of the compounds of the invention was evaluated on the known fluorogenic substrate (Mca-Lys-Pro-Leu-Gly-Leu-Dpa-Ala-Arg-NH2), shortly referred to as FS-6 (see, as a reference, U. Neumann, Analytical Biochem. 2004, 328, 166-173).
(§2) Recombinant human progelatinase A (pro-MMP-2) and B (pro-MMP-9) from transfected mouse myeloma cells, MMP-16 and MMP-14 catalytic domains were supplied by Prof. Gillian Murphy (Department of Oncology, University of Cambridge, UK). Pro-MMP-1, pro-MMP-8, pro-MMP-3 and pro-MMP-13 were purchased from Calbiochem, MMP-12 was furnished from RDSystems.
(§3) For assay measurements, the inhibitor stock solutions (DMSO, 100 mM) were further diluted, at 7 different concentrations (0.01 nM-300 μM) for each MMP in the fluorimetric assay buffer (FAB: Tris 50 mM, pH=7.5, NaCl 150 mM, CaCl2 10 mM, Brij 35 0.05% and DMSO 1%). Activated enzyme (final concentration 2.9 nM for MMP-2, 2.7 nM for MMP-9, 1.5 nM for MMP-8, 0.3 nM for MMP-13, 5 nM for MMP-3, 1 nM for MMP-14cd, 15 nM for MMP-16cd and 2.0 nM for MMP-1, 1 nM for MMP12) and inhibitor solutions were incubated in the assay buffer for 4 h at 25° C. After the addition of 200 μM solution of the fluorogenic substrate Mca-Arg-Pro-Lys-Pro-Val-Glu-Nva-Trp-Arg-Lys(Dnp)-NH2 (Sigma) for MMP-3 and Mca-Lys-Pro-Leu-Gly-Leu-Dap(Dnp)-Ala-Arg-NH2 (Bachem) (Neumann, U.; Kubota, H.; Frei, K.; Ganu, V.; Leppert, D. Anal. Biochem. 2004, 328, 166) for all the other enzymes in DMSO (final concentration 2 μM), the hydrolysis was monitored every 15 sec. for 20 min. recording the increase in fluorescence (λex=325 nm, λem=395 nm) using a Molecular Device SpectraMax Gemini XS plate reader. The assays were performed in triplicate in a total volume of 200 μl per well in 96-well microtitre plates (Corning, black, NBS). Control wells lack inhibitor. The MMP inhibition activity was expressed in relative fluorescent units (RFU). Percent of inhibition was calculated from control reactions without the inhibitor. IC50 was determined using the formula: Vi/Vo=1/(1+[I]/IC50), where Vi is the initial velocity of substrate cleavage in the presence of the inhibitor at concentration [I] and Vo is the initial velocity in the absence of the inhibitor. Results were analyzed using SoftMax Pro software and GraFit software.

MMP-16 catalytic domain = target: T2, MMP-16 catalytic domain (Homo sapiens, UniProt P51512); assay: MMP inhibition assay, fluorogenic substrate FS-6; format: biochemical; conditions: MMP-16cd 15 nM, inhibitor incubated 4 h at 25° C., substrate Mca-Lys-Pro-Leu-Gly-Leu-Dap(Dnp)-Ala-Arg-NH2 2 μM
T2 construct: MMP-16 and MMP-14 catalytic domains were supplied by Prof; Gillian Murphy; purchased supplied by Prof; Gillian Murphy (Department of Oncology, University of Cambridge, UK)
Description: as §1, §2, §3

MMP-8 = target: T3, MMP-8 (Homo sapiens, UniProt P22894); assay: MMP inhibition assay, fluorogenic substrate FS-6; format: biochemical; conditions: MMP-8 1.5 nM, inhibitor incubated 4 h at 25° C., substrate Mca-Lys-Pro-Leu-Gly-Leu-Dap(Dnp)-Ala-Arg-NH2 2 μM
T3 construct: purchased Calbiochem
Description: as §1, §2
(§4) Pro-MMP-3 was activated with trypsin 5 μg/mL for 30 min at 37 C.° followed by soybean trypsin inhibitor (SBTI) 62 μg/mL.
as §3

MMP-9 = target: T4, MMP-9 (Homo sapiens, UniProt P14780); assay: MMP inhibition assay, fluorogenic substrate FS-6; format: biochemical; conditions: MMP-9 2.7 nM, inhibitor incubated 4 h at 25° C., substrate Mca-Lys-Pro-Leu-Gly-Leu-Dap(Dnp)-Ala-Arg-NH2 2 μM
T4 construct: purchased supplied by Prof; Gillian Murphy (Department of Oncology, University of Cambridge, UK); host or cells: transfected mouse myeloma cells
Description: as §1, §2, §4, §3

MMP-3 = target: T5, MMP-3 (Homo sapiens, UniProt P08254); assay: MMP inhibition assay, fluorogenic substrate; format: biochemical; conditions: MMP-3 5 nM, inhibitor incubated 4 h at 25° C., substrate Mca-Arg-Pro-Lys-Pro-Val-Glu-Nva-Trp-Arg-Lys(Dnp)-NH2
T5 construct: purchased Calbiochem
Description: as §2, §4
as §3, with “The MMP inhibition activity was expressed in relative fluorescent units (RFU).” left out

MMP-14 catalytic domain = target: T6, MMP-14 catalytic domain (Homo sapiens, UniProt P50281); assay: MMP inhibition assay, fluorogenic substrate FS-6; format: biochemical; conditions: MMP-14cd 1 nM, inhibitor incubated 4 h at 25° C., substrate Mca-Lys-Pro-Leu-Gly-Leu-Dap(Dnp)-Ala-Arg-NH2 2 μM
T6 construct: MMP-16 and MMP-14 catalytic domains were supplied by Prof; Gillian Murphy; purchased supplied by Prof; Gillian Murphy (Department of Oncology, University of Cambridge, UK)
Description: as §1, §2, §3

MMP-13 = MMP-13 (Homo sapiens, UniProt P45452); assay: MMP inhibition assay, fluorogenic substrate FS-6; format: biochemical; conditions: MMP-13 0.3 nM, inhibitor incubated 4 h at 25° C., substrate Mca-Lys-Pro-Leu-Gly-Leu-Dap(Dnp)-Ala-Arg-NH2 2 μM
Description: as §1, §2, §4, §3

MMP-2 [1] = target: T7, MMP-2 (Homo sapiens, UniProt P08253); assay: MMP inhibition assay, fluorogenic substrate FS-6; format: biochemical; design: purchased supplied by Prof; Gillian Murphy (Department of Oncology, University of Cambridge, UK); host or cells: transfected mouse myeloma cells; conditions: activated pro-MMP-2 2.9 nM, inhibitor incubated 4 h at 25° C., substrate Mca-Lys-Pro-Leu-Gly-Leu-Dap(Dnp)-Ala-Arg-NH2 2 μM
T7 sequence (P08253 110-660): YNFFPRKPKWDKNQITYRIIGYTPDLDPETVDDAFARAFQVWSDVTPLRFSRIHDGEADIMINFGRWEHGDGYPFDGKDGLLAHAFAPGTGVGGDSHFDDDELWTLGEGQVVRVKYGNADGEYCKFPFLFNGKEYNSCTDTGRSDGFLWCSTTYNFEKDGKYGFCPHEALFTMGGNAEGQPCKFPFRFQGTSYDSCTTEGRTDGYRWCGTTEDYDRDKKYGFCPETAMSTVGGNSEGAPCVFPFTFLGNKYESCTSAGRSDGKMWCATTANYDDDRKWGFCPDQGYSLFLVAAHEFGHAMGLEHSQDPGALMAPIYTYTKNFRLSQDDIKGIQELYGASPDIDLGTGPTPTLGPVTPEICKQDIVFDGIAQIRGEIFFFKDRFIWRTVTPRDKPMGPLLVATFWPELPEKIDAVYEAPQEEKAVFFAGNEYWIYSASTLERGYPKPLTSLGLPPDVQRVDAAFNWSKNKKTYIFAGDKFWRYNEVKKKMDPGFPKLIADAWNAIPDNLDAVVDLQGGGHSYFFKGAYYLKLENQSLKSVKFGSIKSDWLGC
Description: as §1, §2, §4, §3

MMP-2 [2] = target: T7, MMP-2; conditions: isolated enzyme, fluorogenic substrate FS-1, literature value; cited from earlier work
MMP-14 = MMP-14 (Homo sapiens, UniProt P50281); conditions: isolated enzyme, fluorogenic substrate FS-1, literature value; cited from earlier work

T1 sequence (P39900 106-470): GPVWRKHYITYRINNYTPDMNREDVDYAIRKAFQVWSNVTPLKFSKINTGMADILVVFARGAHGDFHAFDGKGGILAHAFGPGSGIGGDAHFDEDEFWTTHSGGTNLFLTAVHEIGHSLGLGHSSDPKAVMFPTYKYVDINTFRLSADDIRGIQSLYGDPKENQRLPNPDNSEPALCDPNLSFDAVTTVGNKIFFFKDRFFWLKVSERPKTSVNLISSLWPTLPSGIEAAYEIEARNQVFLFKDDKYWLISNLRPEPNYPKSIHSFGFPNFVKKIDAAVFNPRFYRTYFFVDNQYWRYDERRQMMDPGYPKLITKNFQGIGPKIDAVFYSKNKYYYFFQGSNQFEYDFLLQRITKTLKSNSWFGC
T2 sequence (P51512 120-292 limits assumed): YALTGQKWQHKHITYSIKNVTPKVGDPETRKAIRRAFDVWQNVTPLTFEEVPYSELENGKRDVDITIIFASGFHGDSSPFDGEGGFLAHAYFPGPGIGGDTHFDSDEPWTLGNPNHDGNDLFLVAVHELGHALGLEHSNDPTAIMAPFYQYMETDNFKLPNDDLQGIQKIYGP
T5 sequence (P08254 100-477): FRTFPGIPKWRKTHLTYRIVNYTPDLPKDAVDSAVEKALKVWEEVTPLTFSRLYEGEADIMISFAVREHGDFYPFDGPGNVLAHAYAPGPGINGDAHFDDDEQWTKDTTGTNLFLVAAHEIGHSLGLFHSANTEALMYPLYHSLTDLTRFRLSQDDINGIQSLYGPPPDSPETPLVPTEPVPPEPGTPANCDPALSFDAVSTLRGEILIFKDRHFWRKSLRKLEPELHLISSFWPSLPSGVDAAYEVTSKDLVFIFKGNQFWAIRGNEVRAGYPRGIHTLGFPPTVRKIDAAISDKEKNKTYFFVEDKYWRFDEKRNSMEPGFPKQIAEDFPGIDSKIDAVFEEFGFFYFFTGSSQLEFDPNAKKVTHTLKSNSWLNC
T4 sequence (P14780 107-707 limits assumed): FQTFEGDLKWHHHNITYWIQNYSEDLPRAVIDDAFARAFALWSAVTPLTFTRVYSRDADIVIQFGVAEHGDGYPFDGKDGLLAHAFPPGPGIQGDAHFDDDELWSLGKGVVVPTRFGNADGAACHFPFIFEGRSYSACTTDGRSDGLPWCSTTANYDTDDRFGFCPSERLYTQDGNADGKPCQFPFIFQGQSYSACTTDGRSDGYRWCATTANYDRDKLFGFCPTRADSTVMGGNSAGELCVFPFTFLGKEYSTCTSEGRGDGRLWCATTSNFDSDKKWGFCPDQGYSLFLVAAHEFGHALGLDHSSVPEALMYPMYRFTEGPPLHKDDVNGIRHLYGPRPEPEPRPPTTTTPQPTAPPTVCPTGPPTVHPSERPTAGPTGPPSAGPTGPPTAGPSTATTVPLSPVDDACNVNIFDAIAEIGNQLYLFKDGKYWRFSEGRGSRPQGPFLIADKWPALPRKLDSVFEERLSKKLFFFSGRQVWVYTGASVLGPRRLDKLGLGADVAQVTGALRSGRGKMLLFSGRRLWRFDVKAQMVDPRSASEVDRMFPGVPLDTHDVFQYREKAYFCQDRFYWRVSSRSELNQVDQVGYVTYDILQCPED
T3 sequence (P22894 101-467): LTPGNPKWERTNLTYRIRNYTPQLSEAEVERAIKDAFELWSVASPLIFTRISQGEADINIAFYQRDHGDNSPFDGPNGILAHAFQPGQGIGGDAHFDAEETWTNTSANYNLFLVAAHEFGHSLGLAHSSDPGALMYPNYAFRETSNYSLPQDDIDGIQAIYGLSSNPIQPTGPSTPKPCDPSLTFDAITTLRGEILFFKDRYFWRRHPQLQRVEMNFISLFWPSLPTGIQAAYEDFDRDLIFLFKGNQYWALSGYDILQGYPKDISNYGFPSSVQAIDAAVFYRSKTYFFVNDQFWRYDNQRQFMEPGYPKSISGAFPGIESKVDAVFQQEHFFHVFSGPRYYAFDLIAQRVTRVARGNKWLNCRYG

SMILES	IC50 (MMP-12) [nM]	IC50 (MMP-16 catalytic domain) [nM]	IC50 (MMP-8) [nM]	IC50 (MMP-9) [nM]	IC50 (MMP-3) [nM]	IC50 (MMP-14 catalytic domain) [nM]	IC50 (MMP-13) [nM]	IC50 (MMP-2 [1]) [nM]	IC50 (MMP-2 [2]) [nM]	IC50 (MMP-14) [nM]
COc1ccc(-c2ccc(S(=O)(=O)N(OCCOCCN3CCNCC3)[C@H](CCNC(=O)OCc3ccccc3)C(=O)NO)cc2)cc1 [1j]	0.4 ± 0.05	10 ± 1	3.2 ± 0.2	1.7 ± 0.14	39 ± 3.3	–	–	–	–	–
CCC(=O)N1CCN(CCOCCON([C@H](CCNC(=O)OCc2ccccc2)C(=O)NO)S(=O)(=O)c2ccc(-c3ccc(OC)cc3)cc2)CC1 [1k]	22 ± 4	1260 ± 59	–	187 ± 11	1990 ± 90	1700 ± 305	24.4 ± 2.5	47.9 ± 4.9	–	–
CC[N+]1=C(/C=C/C=C/C=C2/N(CCCCCC(=O)NCC[C@H](C(=O)NO)N(OC(C)C)S(=O)(=O)c3ccc(-c4ccc(OC)cc4)cc3)c3ccc4c(S(=O)(=O)O)cc(S(=O)(=O)O)cc4c3C2(C)C)C(C)(C)c2c1ccc1c(S(=O)(=O)[O-])cc(S(=O)(=O)O)cc21 [Compound 5]	–	–	–	–	–	–	82 ± 13	56 ± 8	–	–
CC[N+]1=C(/C=C/C=C/C=C2\N(CCCCCC(=O)N3CCN(CCOCCON([C@H](CCNC(=O)OCc4ccccc4)C(=O)O)S(=O)(=O)c4ccc(-c5ccc(OC)cc5)cc4)CC3)c3ccc4c(S(=O)(=O)[O-])cc(S(=O)(=O)O)cc4c3C2(C)C)C(C)(C)c2c1ccc1c(S(=O)(=O)O)cc(S(=O)(=O)O)cc21 [Compound 6a]	–	–	–	–	–	–	50 ± 4.3	73.5 ± 5.7	–	–
CC[N+]1=C(/C=C/C=C/C=C2/N(CCCCCC(=O)N3CCN(CCOCCON([C@H](CCNC(=O)OCc4ccccc4)C(=O)NO)S(=O)(=O)c4ccc(-c5ccc(OC)cc5)cc4)CC3)c3ccc4c(S(=O)(=O)O)cc(S(=O)(=O)O)cc4c3C2(C)C)C(C)(C)c2c1ccc1c(S(=O)(=O)[O-])cc(S(=O)(=O)O)cc21 [Compound 6b]	0.67 ± 0.06	30 ± 2.3	6.5 ± 0.6	3.3 ± 0.1	53 ± 4.5	67 ± 3.4	0.17 ± 0.02	0.6 ± 0.06	–	–
CC(C)ON(C(CCNC(=O)OCc1ccccc1)C(=O)NO)S(=O)(=O)c1ccc(-c2ccccc2)cc1 (centres unmarked) [compound (5b)]	–	–	–	–	–	–	–	–	0.41	7.7
